Data taken from the supplement of paper PMC10307832.

Tests used:
Assay in all cases: relative viability (nuclei count vs DMSO), 5 days (fraction); higher = more cells survive
[1] = compound: COc1cccc2c1C(=O)c1c(O)c3c(c(O)c1C2=O)C[C@@](O)(C(=O)CO)C[C@@H]3O[C@H]1C[C@H](N)[C@H](O)[C@H](C)O1 [Doxorubicin] + C[C@@H](Oc1cc(-c2cnn(C3CCNCC3)c2)cnc1N)c1c(Cl)ccc(F)c1Cl [Crizotinib] (partner 1 µM)
Outline: (§1)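 A single step with final 0.05% Triton X-100, 1% formaldehyde and 1 ug/ml Hoechst fixed the cells and stained nuclei 5 days after treatment. Lung cancer cell lines in 1536-well plates had been treated by pin tool the day after seeding with one drug alone or a fixed anchor-drug dose plus five library-drug doses (not always all listed) in √10 steps, and nuclei were counted on 4× images. Relative viability is the ratio of nuclei in treated wells to nuclei in vehicle wells, taken as the median of duplicate plates.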

[2] = compound: COC1=C(C=C(C=C1)C2=CC3=NC=CN3C(=N2)NC4=C(C=CC=N4)C(=O)N)OC [BAY61-3606] + O=C(c1cc(Cc2n[nH]c(=O)c3ccccc23)ccc1F)N1CCN(C(=O)C2CC2)CC1 [Olaparib] (partner 8 µM)
Outline: as §1

[3] = compound: COC1=C(C=C(C=C1)C2=CC3=NC=CN3C(=N2)NC4=C(C=CC=N4)C(=O)N)OC [BAY61-3606] + NC(=O)Nc1cc(-c2cccc(F)c2)sc1C(=O)N[C@H]1CCCNC1 [AZD7762] (partner 0.2 µM)
Outline: as §1

[4] = compound: COc1cccc2c1C(=O)c1c(O)c3c(c(O)c1C2=O)C[C@@](O)(C(=O)CO)C[C@@H]3O[C@H]1C[C@H](N)[C@H](O)[C@H](C)O1 [Doxorubicin] + COc1cc2c(Oc3ccc(NC(=O)C4(C(=O)Nc5ccc(F)cc5)CC4)cc3F)ccnc2cc1OCCCN1CCOCC1 [Foretinib] (partner 0.25 µM)
Outline: as §1

| Cell Line | relative viability ([1]; first compound 0.001 µM) | relative viability ([1]; first compound 0.003162 µM) | relative viability ([1]; first compound 0.01 µM) | relative viability ([1]; first compound 0.03162 µM) | relative viability ([1]; first compound 0.1 µM) | relative viability ([2]; first compound 0.02 µM) | relative viability ([2]; first compound 0.06325 µM) | relative viability ([2]; first compound 0.2 µM) | relative viability ([2]; first compound 0.6325 µM) | relative viability ([2]; first compound 2 µM) | relative viability ([3]; first compound 0.02 µM) | relative viability ([3]; first compound 0.06325 µM) | relative viability ([3]; first compound 0.2 µM) | relative viability ([3]; first compound 0.6325 µM) | relative viability ([3]; first compound 2 µM) | relative viability ([4]; first compound 0.001 µM) | relative viability ([4]; first compound 0.003162 µM) | relative viability ([4]; first compound 0.01 µM) | relative viability ([4]; first compound 0.03162 µM) | relative viability ([4]; first compound 0.1 µM) |
| --- | --- | --- | --- | --- | --- | --- | --- | --- | --- | --- | --- | --- | --- | --- | --- | --- | --- | --- | --- | --- |
| HCC-44 | 0.868 | 0.915 | 0.824 | 0.81 | 0.785 | 0.955 | 0.974 | 0.979 | 0.901 | 0.958 | 1.01 | 1.1 | 0.962 | 1.01 | 1.1 |  |  |  |  |  |
| HCC-78 | 0.356 | 0.332 | 0.395 | 0.352 | 0.28 | 0.744 | 0.891 | 0.845 | 0.966 | 0.838 | 0.645 | 0.51 | 0.652 | 0.487 | 0.674 | 0.577 | 0.627 | 0.528 | 0.517 | 0.499 |
| IA-LM | 0.604 | 0.914 | 0.564 | 0.376 | 0.113 | 1.02 | 0.864 | 0.816 | 0.85 | 0.68 |  |  |  |  |  | 1.04 | 1.13 | 1.2 | 1.1 | 1.06 |
| NCI-H520 | 0.649 | 0.597 | 0.793 | 0.616 | 0.501 | 0.359 | 0.325 | 0.383 | 0.391 | 0.274 |  |  |  |  |  | 0.831 | 0.729 | 0.619 | 0.673 | 0.548 |
| NCI-H522 |  |  |  |  |  | 0.768 | 0.618 | 0.644 | 0.654 | 0.53 | 0.796 | 0.698 | 0.692 | 0.762 | 0.822 |  |  |  |  |  |
| NCI-H661 | 0.971 | 1.21 | 1.08 | 1.02 | 0.993 | 0.737 | 0.75 | 0.679 | 0.762 | 0.691 |  |  |  |  |  | 1.01 | 1 | 0.954 | 0.826 | 0.542 |
| NCI-H1299 | 0.952 | 0.981 | 0.939 | 0.874 | 0.49 | 1 | 0.987 | 0.983 | 0.967 | 0.936 |  |  |  |  |  | 1.1 | 1.11 | 1.1 | 1.16 | 1.05 |
| NCI-H1395 |  |  |  |  |  | 0.485 | 0.426 | 0.467 | 0.492 | 0.438 | 0.393 | 0.411 | 0.424 | 0.42 | 0.393 | 0.949 | 1.05 | 0.953 | 0.892 | 0.92 |
| NCI-H1563 | 0.826 | 0.728 | 0.584 | 0.522 | 0.447 |  |  |  |  |  |  |  |  |  |  | 0.876 | 0.878 | 0.728 | 0.58 | 0.502 |
| NCI-H1623 |  |  |  |  |  |  |  |  |  |  |  |  |  |  |  | 0.766 | 0.815 | 0.895 | 0.798 | 0.78 |
| NCI-H1648 |  |  |  |  |  | 0.766 | 0.982 | 0.736 |  | 0.765 | 0.723 | 0.696 | 0.777 |  | 0.643 |  |  |  |  |  |
| NCI-H1650 | 0.925 | 0.903 | 0.283 | 0.181 | 0.13 | 0.86 | 0.924 | 0.768 | 0.806 | 0.674 |  |  |  |  |  | 0.967 | 1.38 | 0.859 | 0.291 | 0.181 |
| NCI-H1792 | 0.975 | 0.974 | 1.01 | 0.924 | 0.943 | 0.66 | 0.463 | 0.294 | 0.286 | 0.282 | 0.783 | 0.538 | 0.802 | 0.62 | 0.455 |  |  |  |  |  |
| NCI-H1793 |  |  |  |  |  | 0.988 | 0.814 | 1 | 1.03 | 0.718 | 0.483 | 0.277 | 0.448 | 0.636 | 0.504 |  | 0.881 | 0.63 | 0.531 | 0.594 |
| NCI-H2009 | 1.06 | 0.991 | 0.893 | 0.352 | 0.222 | 0.714 | 0.639 | 0.864 | 0.713 | 0.592 |  |  |  |  |  | 1.13 | 1.18 | 1.15 | 0.947 | 0.946 |
| NCI-H2023 | 0.598 | 0.679 | 0.36 | 0.0967 | 0.0644 | 0.515 | 0.623 | 0.481 | 0.496 | 0.257 |  |  |  |  |  | 0.567 | 0.934 | 0.507 | 0.461 | 0.17 |
| NCI-H2228 | 0.562 | 0.384 | 0.421 | 0.343 | 0.197 | 0.879 | 0.73 | 0.889 | 0.693 | 0.412 |  |  |  |  |  | 0.805 | 0.992 | 0.689 | 0.651 | 0.363 |
| NCI-H2342 |  |  |  |  |  | 0.352 | 0.406 | 0.399 | 0.495 | 0.432 | 0.459 | 0.496 | 0.416 | 0.726 | 0.586 | 1.08 | 1.08 | 1.06 | 0.791 | 1.17 |
| SK-LU-1 | 1.15 | 1.03 | 0.639 | 0.472 | 0.32 | 0.599 | 0.458 | 0.646 | 0.429 | 0.355 |  |  |  |  |  | 0.85 | 0.812 | 0.76 | 0.507 | 0.333 |
| SK-MES-1 | 1.08 | 1.05 | 0.97 | 0.871 | 0.865 | 0.679 | 0.786 | 0.606 | 0.688 | 0.31 |  |  |  |  |  | 1 | 0.843 | 0.923 | 0.818 | 0.766 |
| SW 900 |  |  |  |  |  | 0.881 |  |  | 0.856 | 0.573 | 0.591 |  |  | 0.632 | 0.758 | 0.929 | 1.06 | 0.727 | 0.727 | 0.958 |
| SW 1573 | 0.905 | 0.794 | 0.85 | 0.687 | 0.69 | 0.553 | 0.455 | 0.424 | 0.542 | 0.259 |  |  |  |  |  | 0.921 | 1.19 | 0.829 | 0.451 | 0.503 |
